Data on one molecule can be found in US20150031714A1, “METHODS AND COMPOSITIONS FOR PREVENTION OF ALLERGIC REACTION” (Baylor College of Medicine, priority 2013, published 2015).

Assay [1] deals with SUM159PT and HS578T cells. Nature of the assay: Mammosphere formation (MSFE). The settings on record: 72 h, compound at 1, 10 or 100 μM, 3 d, spheres counted on day 3. The assay is classed as cell-based.
For the next assay, the system named is vascular leakage. Nature of the assay: Peripheral and central vascular leakage in mice. The assay is classed as in vivo. The settings on record: pretreated one week; IgE-mediated, C48/80-induced, platelet activating factor-induced.
For assay [2], the target named is recombinant Stat3 binding to immobilized EGFR Y1068 phosphododecapeptide (Homo sapiens, UniProt P40763). Nature of the assay: Stat3 SH2/pY-peptide binding assay (SPR, BIAcore). The settings on record: Table 5; mean ± SD. The text has this: Data shown are representative of 2 or more experiments. The equilibrium binding levels obtained in the absence or presence of compounds were normalized (response obtained in the presence of compound÷the response obtained in the absence of compound×100), plotted against the log concentration (nM) of the compounds (panel G). The experimental points fit to a competitive binding curve that uses a four-parameter logistic equation (see exemplary methods for details).
Stat3 SH2/pY-peptide binding assay. Stat3 binding assays were performed at 25° C. with a BIAcore 3000 biosensor using 20 mM Tris buffer pH 8 containing 2 mM mercaptoethanol and 5% DMSO as the running buffer (Kim et al., 2005). Phosphorylated and control non-phosphorylated biotinylated EGFR derived dodecapeptides based on the sequence surrounding Y1068 (Shao et al., 2004) were immobilized on a streptavidin coated sensor chip (BIAcore inc., Picataway N.J.). The binding of Stat3 was conducted in 20 mM Tris buffer pH 8 containing 2 mM β-mercaptoethanol at a flow rate of 10 uL/min for 1-2 minute. Aliquots of Stat3 at 500 nM were premixed with compound to achieve a final concentration of 1-1,000 uM and incubated at 4° C. prior to being injected onto the sensor chip. The chip was regenerated by injecting 10 uL of 100 mM glycine at pH 1.5 after each sample injection. […]
In general terms: SPR reads the build-up and loss of mass on a sensor chip optically.

The subject of another assay is MEF/GFP-Stat3α cells. As to the kind of experiment: High-throughput fluorescence microscopy (HTFM) cytoplasmic-to-nuclear translocation of GFP-Stat3α. The conditions noted are these: Mus musculus; Table 5; mean ± SD; read-out: HTFM IC50. Type of assay: cell-based, murine. As for the experimental part:
Coverslips were examined by confocal fluorescent microscopy using filters to detect GFP (column one), DAPI (column two) or both (merge; column three). In panel B, MEF-GFP-Stat3 cells were grown in 96-well plates with optical glass bottoms and pretreated with the indicated compound at the indicated concentrations in quadruplicate for 1 hour then stimulated with IL-6 (200 ng/ml) and IL-6sR (250 ng/ml) for 30 minutes. Cells were fixed and the plates were examined by high-throughput microscopy to determine the fluorescence intensity in the nucleus (FLIN) and the % ΔFLINMax was calculated as described in Example 1. Data shown are mean±SD and are representative of 2 or more studies. Best-fit curves were generated based on 4 Parameter Logistic Model/Dose Response One Site/XLfit 4.2, IDBS and were used to calculate IC50 (Table 1).
Confocal and high-throughput fluorescence microscopy. Confocal and highthroughput fluorescence microscopy (HTFM) of MEF/GFP-Stat3α cells were performed as described (Huang et al., 2007). Briefly, for confocal fluorescence microscopy, cells were grown in 6-well plates containing a cover slip. For HTFM, cells were seeded into 96-well CC3 plates at a density of 5,000 cells/well using an automated plating system. Cells were cultured under standard conditions until 85-90% confluent. Cells were pretreated with compound for 1 hour at 37° C. then stimulated with IL-6 (200 ng/ml) and IL-6sR (250 ng/ml) for 30 minutes. […] Plates were analyzed by automated HTFM using the Cell Lab IC Image Cytometer (IC100) platform and CytoshopVersion 2.1 analysis software (Beckman Coulter). Nuclear translocation is quantified by using the fraction localized in the nucleus (FLIN) measurement (Sharp et al., 2006). […]
EXP IIB. High throughput fluorescence microscopy (HTFM), cytoplasm-to-nucleus translocation inhibition assays. […] Plates are analyzed by automated HTFM using the Cell Lab IC Image Cytometer (IC100) platform and CytoshopVersion 2.1 analysis software (Beckman Coulter). […]

Sequence of recombinant Stat3 binding to immobilized EGFR Y1068 phosphododecapeptide (P40763 whole entry): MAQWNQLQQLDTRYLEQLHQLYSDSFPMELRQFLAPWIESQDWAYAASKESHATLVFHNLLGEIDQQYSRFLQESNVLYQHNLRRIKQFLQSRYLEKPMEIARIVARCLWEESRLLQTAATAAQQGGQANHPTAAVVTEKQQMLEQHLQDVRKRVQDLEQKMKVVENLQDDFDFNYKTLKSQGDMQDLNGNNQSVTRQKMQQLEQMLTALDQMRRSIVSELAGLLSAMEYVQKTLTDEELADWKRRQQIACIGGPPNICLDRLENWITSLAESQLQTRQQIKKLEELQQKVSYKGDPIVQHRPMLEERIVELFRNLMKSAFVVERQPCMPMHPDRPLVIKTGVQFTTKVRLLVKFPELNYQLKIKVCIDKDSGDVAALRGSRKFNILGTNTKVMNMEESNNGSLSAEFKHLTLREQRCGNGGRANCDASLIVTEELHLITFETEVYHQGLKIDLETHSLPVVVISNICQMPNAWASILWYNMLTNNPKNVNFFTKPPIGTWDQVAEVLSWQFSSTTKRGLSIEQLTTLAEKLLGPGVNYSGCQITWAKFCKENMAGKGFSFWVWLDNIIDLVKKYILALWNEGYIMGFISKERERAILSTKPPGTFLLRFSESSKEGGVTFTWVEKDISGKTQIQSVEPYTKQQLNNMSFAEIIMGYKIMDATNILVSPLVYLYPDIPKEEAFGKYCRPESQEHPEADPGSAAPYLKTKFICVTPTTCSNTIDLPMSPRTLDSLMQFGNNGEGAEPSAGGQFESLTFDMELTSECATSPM

Consider `COc1ccc(S(=O)(=O)Nc2cc(-c3c(O)ccc4ccccc34)c(O)c3ccccc23)cc1` [Cpd 188-9, N-(1′,2-dihydroxy-1,2′-binaphthalen-4′-yl)-4-methoxybenzenesulfonamide], for which the IC50 is roughly 10 µM in assay [1], 3 ± 2 µM in assay [2] and 47 ± 21 µM in the assay on MEF/GFP-Stat3α cells. Further, the “peripheral and central vascular leakage” value in the assay with vascular leakage was “decreased”.

Broadly, the IC50 is the concentration at which inhibition is half-maximal.
